Results: patent US20140051679A1, “KINASE INHIBITORS AND METHOD OF TREATING CANCER WITH SAME” (UNIVERISTY HEALTH NETWORKS, priority 2011, published 2014)

Experiments:
human TTK = target: T1, human TTK (Homo sapiens, UniProt P33981); assay: TTK inhibition assay (indirect ELISA); format: biochemical; conditions: GST-TTK 0.68 nM, 16 μM ATP; read-out: IC50 Ranges TTK
T1 construct: amino terminal GST fusion of full length human TTK; purchased Invitrogen
T1 sequence (P33981 1-857): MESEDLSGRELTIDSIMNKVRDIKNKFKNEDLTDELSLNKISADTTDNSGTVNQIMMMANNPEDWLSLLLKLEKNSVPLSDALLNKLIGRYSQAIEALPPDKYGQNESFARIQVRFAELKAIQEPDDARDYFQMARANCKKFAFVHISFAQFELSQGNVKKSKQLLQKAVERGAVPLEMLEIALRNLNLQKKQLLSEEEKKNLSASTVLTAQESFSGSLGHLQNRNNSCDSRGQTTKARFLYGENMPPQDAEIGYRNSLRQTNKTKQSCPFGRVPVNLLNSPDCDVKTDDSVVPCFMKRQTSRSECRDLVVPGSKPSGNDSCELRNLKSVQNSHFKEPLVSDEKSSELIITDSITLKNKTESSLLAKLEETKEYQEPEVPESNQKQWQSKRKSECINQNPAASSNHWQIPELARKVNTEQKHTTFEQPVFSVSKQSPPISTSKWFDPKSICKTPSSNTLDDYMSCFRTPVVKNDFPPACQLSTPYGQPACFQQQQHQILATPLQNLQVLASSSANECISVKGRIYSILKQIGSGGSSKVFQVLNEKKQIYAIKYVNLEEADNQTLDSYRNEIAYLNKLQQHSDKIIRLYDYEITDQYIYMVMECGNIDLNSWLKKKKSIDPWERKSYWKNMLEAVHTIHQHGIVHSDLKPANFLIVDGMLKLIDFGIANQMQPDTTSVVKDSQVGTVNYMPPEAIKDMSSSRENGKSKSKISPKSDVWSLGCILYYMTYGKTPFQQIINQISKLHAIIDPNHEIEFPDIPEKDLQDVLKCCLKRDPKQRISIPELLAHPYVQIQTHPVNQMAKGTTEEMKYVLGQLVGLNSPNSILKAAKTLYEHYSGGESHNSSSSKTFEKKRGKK

human PLK4 = target: T2, human PLK4 (Homo sapiens, UniProt O00444); assay: PLK4 inhibition assay (indirect ELISA); format: biochemical; conditions: GST-PLK4 4 nM, 15 μM ATP; read-out: IC50 Ranges PLK4
T2 construct: amino terminal GST fusion of residues 1-391 of human PLK4; made in house; host or cells: E. coli
T2 sequence (O00444 1-391): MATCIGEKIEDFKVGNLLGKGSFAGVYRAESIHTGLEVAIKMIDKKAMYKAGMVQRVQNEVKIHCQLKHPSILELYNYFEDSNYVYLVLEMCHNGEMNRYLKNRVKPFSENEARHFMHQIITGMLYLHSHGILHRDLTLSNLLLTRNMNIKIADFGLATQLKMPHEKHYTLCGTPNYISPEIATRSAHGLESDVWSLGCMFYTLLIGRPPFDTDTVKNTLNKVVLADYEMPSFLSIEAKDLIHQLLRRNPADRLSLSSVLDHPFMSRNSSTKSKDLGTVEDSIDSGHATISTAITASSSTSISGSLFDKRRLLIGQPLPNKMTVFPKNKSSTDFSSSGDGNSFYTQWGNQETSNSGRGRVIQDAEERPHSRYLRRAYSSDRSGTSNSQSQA
Outline: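 Dephosphorylated GST-tagged human PLK4 (residues 1-391, E. coli), 4 nM, preincubated 15 min with compound, then reacted 30 min with 15 μM ATP on MBP-coated plates (50 mM HEPES pH 7.5, 10 mM MgCl2, 0.01% Brij 35). Phospho-MBP detected by antibody ELISA at 450 nm. Tested at 10 μM or 10-point titrations; IC50 from 4-parameter logistic fit.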

Aurora B = target: T3, Aurora B (Homo sapiens, UniProt Q96GD4); assay: Aurora B inhibition assay (Z-Lyte); format: biochemical; conditions: 28 nM Aurora B, 128 μM ATP; read-out: IC50 Ranges Aurora B
T3 construct: purchased Invitrogen PV3970
Protocol: Aurora B inhibition was determined using the Z-Lyte assay kit from Invitrogen. The assay was performed using the recommended manufacturer's instructions with 128 μM ATP and 28 nM Aurora B (Invitrogen cat #PV3970). The % inhibition values were determined according to the manufacturer's directions and IC50 values were obtained using a non-linear 4 point logistic curve fit (XLfit4, IDBS)

[1] = system: MDA-MB-231 breast cancer cells; assay: Cell growth inhibition, Sulforhodamine B assay, MDA-MB-231; format: cell-based; conditions: Homo sapiens, 120 h, 5 days culture, SRB assay, read-out: Cell Line GI50 Range MDA-MB-231
[2] = system: MDA-MB-468 breast cancer cells; assay: Cell growth inhibition, Sulforhodamine B assay, MDA-MB-468; format: cell-based; conditions: Homo sapiens, 120 h, 5 days culture, SRB assay, read-out: Cell Line GI50 Range MDA-MB-468
[3] = system: HCT116 colon cancer cells; assay: Cell growth inhibition, Sulforhodamine B assay, HCT116; format: cell-based; conditions: Homo sapiens, HCT-116, 120 h, 5 days culture, SRB assay, read-out: Cell Line GI50 Range HCT116
HT29 colon cancer cells = assay: Cell growth inhibition, Sulforhodamine B assay, HT29; format: cell-based; conditions: Homo sapiens, HT-29, 120 h, 5 days culture, SRB assay, read-out: Cell Line GI50 Range HT29
[4] = system: PA-1 ovarian cancer cells; assay: Cell growth inhibition, Sulforhodamine B assay, PA-1; format: cell-based; conditions: 120 h, 5 days culture, SRB assay, read-out: Cell Line GI50 Range PA-1
[5] = system: OVCAR-3 ovarian cancer cells; assay: Cell growth inhibition, Sulforhodamine B assay, OVCAR-3; format: cell-based; conditions: Homo sapiens, 120 h, 5 days culture, SRB assay, read-out: Cell Line GI50 Range OVCAR-3

T3 sequence (Q96GD4 whole entry): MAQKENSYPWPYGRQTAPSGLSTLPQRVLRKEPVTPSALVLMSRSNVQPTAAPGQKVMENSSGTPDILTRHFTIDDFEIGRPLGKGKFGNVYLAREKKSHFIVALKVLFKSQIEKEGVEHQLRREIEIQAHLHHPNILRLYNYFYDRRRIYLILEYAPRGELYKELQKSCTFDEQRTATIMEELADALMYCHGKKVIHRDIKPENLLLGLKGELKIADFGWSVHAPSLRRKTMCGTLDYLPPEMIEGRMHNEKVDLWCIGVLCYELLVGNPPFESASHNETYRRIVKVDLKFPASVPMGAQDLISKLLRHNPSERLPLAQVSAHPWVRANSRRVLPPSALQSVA

Row | SMILES | IC50 (human TTK) [µM] | IC50 (human PLK4) [µM] | IC50 (Aurora B) [µM] | GI50 [1] [µM] | GI50 [2] [µM] | GI50 [3] [µM] | GI50 (HT29 colon cancer cells) [µM] | GI50 [4] [µM] | GI50 [5] [µM]
1 | CN1CCC(Oc2ccc(-c3n[nH]c4ccc(NC(=O)C(c5ccccc5)C5CCCC5)cc34)cc2)CC1 (stereo not drawn) [Example A148, 2-cyclopentyl-N-(3-(4-((1-methylpiperidin-4-yl)oxy)phenyl)-1H-indazol-5-yl)-2-phenylacetamide] | ≤ 5 | ≤ 5 | ≤ 5 | ≤ 5 | ≤ 5 | ≤ 5 | ≤ 5 | ≤ 5 | ≤ 5
2 | CN1CCC(Oc2ccc(-c3n[nH]c4ccc(NC(=O)C(c5ccsc5)N5CCCC5)cc34)cc2N(C)C)CC1 (stereo not drawn) [Example A113, N-(3-(3-(dimethylamino)-4-((1-methylpiperidin-4-yl)oxy)phenyl)-1H-indazol-5-yl)-2-(pyrrolidin-1-yl)-2-(thiophen-3-yl)acetamide] | ≤ 5 | ≤ 5 | ≤ 5 | ≤ 5 | ≤ 5 | ≤ 5 | ≤ 5 | ≤ 5 | ≤ 5
3 | Cc1ccccc1C(NC(=O)c1ccc2[nH]nc(-c3ccc(OC4CCN(C)CC4)cc3)c2c1)C(C)C (stereo not drawn) [Example A143, N-(2-methyl-1-(o-tolyl)propyl)-3-(4-((1-methylpiperidin-4-yl)oxy)phenyl)-1H-indazole-5-carboxamide] | ≤ 5 | ≤ 5 | ≤ 5 | ≤ 5 | ≤ 5 | ≤ 5 | ≤ 5 | ≤ 5 | ≤ 5
4 | CCc1cccc(CC)c1NC(=O)Nc1ccc2[nH]nc(-c3ccc(C4CN(C)CCO4)cc3)c2c1 (stereo not drawn) [Example A124, 1-(2,6-diethylphenyl)-3-(3-(4-(4-methylmorpholin-2-yl)phenyl)-1H-indazol-5-yl)urea] | ≤ 5 | ≤ 5 | ≤ 5 | ≤ 5 | ≤ 5 | ≤ 5 | ≤ 5 | ≤ 5 | 20 to 50
5 | COc1ccccc1C(C(=O)Nc1ccc2[nH]nc(-c3ccc(OC4CCN(C)CC4)cc3)c2c1)C1CCCC1 (stereo not drawn) [Example A156, 2-cyclopentyl-2-(2-methoxyphenyl)-N-(3-(4-((1-methylpiperidin-4-yl)oxy)phenyl)-1H-indazol-5-yl)acetamide] | ≤ 5 | ≤ 5 |  | ≤ 5 | ≤ 5 | ≤ 5 | ≤ 5 | ≤ 5 | ≤ 5
6 | CO[C@@H](C(=O)Nc1ccc2[nH]nc(-c3ccc(O[C@@H]4CCN(C)C[C@@H]4F)cc3)c2c1)c1ccccc1 (relative stereo) [Example A135, (R)—N-(3-(4-(((3S,4R)-3-fluoro-1-methylpiperidin-4-yl)oxy)phenyl)-1H-indazol-5-yl)-2-methoxy-2-phenylacetamide] | ≤ 5 | ≤ 5 |  | ≤ 5 | ≤ 5 | ≤ 5 | ≤ 5 | ≤ 5 | ≤ 5
7 | Cc1ccccc1C(NC(=O)c1ccc2[nH]nc(-c3ccc(N4CC(O)C4)cc3)c2c1)C1CC1 (stereo not drawn) [Example A141, N-(Cyclopropyl(o-tolyl)methyl)-3-(4-(3-hydroxyazetidin-1-yl)phenyl)-1H-indazole-5-carboxamide] | ≤ 5 | ≤ 5 |  | ≤ 5 | ≤ 5 | ≤ 5 | ≤ 5 | ≤ 5 | ≤ 5

Second part, the molecule after the results:

Row | IC50 (human TTK) [µM] | IC50 (human PLK4) [µM] | IC50 (Aurora B) [µM] | GI50 [1] [µM] | GI50 [2] [µM] | GI50 [3] [µM] | GI50 (HT29 colon cancer cells) [µM] | GI50 [4] [µM] | GI50 [5] [µM] | SMILES
8 | ≤ 5 | ≤ 5 | ≤ 5 | ≤ 5 | ≤ 5 | ≤ 5 | ≤ 5 | ≤ 5 | ≤ 5 | O=CN1CCC(Oc2ccc(-c3n[nH]c4ccc(C(=O)NC(c5ccccc5)C5CC5)cc34)cc2)CC1 (stereo not drawn) [Example A126, N-(cyclopropyl(phenyl)methyl)-3-(4-((1-formylpiperidin-4-yl)oxy)phenyl)-1H-indazole-5-carboxamide]
9 | ≤ 5 | ≤ 5 | ≤ 5 | ≤ 5 | ≤ 5 | ≤ 5 | ≤ 5 | ≤ 5 | ≤ 5 | CC(C)(O)C1CCN(c2ccc(-c3n[nH]c4ccc(C(=O)NC(c5ccccc5)C5CC5)cc34)cc2)CC1 (stereo not drawn) [Example A112, N-(cyclopropyl(phenyl)methyl)-3-(4-(4-(2-hydroxypropan-2-yl)piperidin-1-yl)phenyl)-1H-indazole-5-carboxamide]
10 | ≤ 5 | ≤ 5 | ≤ 5 | ≤ 5 | ≤ 5 | ≤ 5 | ≤ 5 | ≤ 5 | ≤ 5 | CN1CCC(Oc2ccc(-c3n[nH]c4ccc(C(=O)N[C@@H](CCO)c5ccccc5)cc34)cc2)CC1 [Example A125, (S)—N-(3-hydroxy-1-phenylpropyl)-3-(4-((1-methylpiperidin-4-yl)oxy)phenyl)-1H-indazole-5-carboxamide]
11 | ≤ 5 | ≤ 5 | ≤ 5 | ≤ 5 | ≤ 5 | ≤ 5 | ≤ 5 | ≤ 5 | ≤ 5 | CN1CCOC(c2ccc(-c3n[nH]c4ccc(C(=O)NC(c5ccccc5)C5CC5)cc34)cc2)C1 (stereo not drawn) [Example A139, N-(cyclopropyl(phenyl)methyl)-3-(4-(4-methylmorpholin-2-yl)phenyl)-1H-indazole-5-carboxamide]
12 | ≤ 5 | ≤ 5 | ≤ 5 | ≤ 5 | ≤ 5 | ≤ 5 | ≤ 5 | ≤ 5 | ≤ 5 | CN(C)C(=O)CN1CCC(Oc2ccc(-c3n[nH]c4ccc(C(=O)NC(c5ccccc5)C5CC5)cc34)cc2)CC1 (stereo not drawn) [Example A158, N-(cyclopropyl(phenyl)methyl)-3-(4-((1-(2-(dimethylamino)-2-oxoethyl)piperidin-4-yl)oxy)phenyl)-1H-indazole-5-carboxamide]
